# Reference: US8013156B2 (Exelixis, Inc., priority 2003, dated 2011)
# Target: Tie-2 (Homo sapiens, UniProt Q02763)
# Assay: Tie-2 tyrosine kinase activity assay (luciferase/luciferin ATP consumption with pEY substrate, or 33P-ATP incorporation)
# Assay type: biochemical
# Settings: human enzyme Tie-2
# Outline: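 Values are IC50 categories (A <50 nM to D ≥10,000 nM), with Ki obtainable by fitting rates to a tight-binding model. Assay formats: 33P-ATP phosphate transfer to adsorbed generic substrate counted by scintillation, or luciferase-detected ATP depletion using pEY.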
# Tie-2, sequence (Q02763 23-1124): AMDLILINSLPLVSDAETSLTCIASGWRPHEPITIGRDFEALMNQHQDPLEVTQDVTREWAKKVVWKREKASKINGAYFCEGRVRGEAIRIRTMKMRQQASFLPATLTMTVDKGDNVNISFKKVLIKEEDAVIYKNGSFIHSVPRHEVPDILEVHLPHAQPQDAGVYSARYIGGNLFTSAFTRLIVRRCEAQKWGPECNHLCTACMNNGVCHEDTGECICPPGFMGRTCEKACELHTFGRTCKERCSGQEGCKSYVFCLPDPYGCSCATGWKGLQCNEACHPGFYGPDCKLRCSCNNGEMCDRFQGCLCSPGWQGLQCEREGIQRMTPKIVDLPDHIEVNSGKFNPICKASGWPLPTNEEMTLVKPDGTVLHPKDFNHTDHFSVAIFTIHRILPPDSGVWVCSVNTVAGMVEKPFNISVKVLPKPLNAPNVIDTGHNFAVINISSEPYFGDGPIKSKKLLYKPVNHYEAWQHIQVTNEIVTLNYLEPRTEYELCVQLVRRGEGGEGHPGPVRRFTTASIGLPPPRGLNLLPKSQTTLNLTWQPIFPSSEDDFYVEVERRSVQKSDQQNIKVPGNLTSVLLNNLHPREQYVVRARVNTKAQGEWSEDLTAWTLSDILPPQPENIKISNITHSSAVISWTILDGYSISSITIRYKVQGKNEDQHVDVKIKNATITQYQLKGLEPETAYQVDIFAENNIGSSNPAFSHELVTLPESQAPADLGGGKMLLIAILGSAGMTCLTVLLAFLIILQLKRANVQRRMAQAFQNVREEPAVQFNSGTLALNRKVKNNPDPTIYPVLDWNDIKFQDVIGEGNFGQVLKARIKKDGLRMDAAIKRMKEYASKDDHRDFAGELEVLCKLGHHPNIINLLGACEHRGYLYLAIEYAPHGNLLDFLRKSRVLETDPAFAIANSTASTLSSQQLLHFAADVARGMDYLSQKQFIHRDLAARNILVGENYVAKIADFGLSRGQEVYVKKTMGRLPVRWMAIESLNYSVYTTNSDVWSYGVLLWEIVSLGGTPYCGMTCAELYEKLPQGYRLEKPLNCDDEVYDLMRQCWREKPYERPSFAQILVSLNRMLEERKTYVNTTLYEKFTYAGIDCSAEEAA
row,SMILES,IC50 [nM]
1,"CC(=O)c1cccc(NC(=O)N2CCN(c3nsnc3OCc3ccnc(N)n3)CC2)c1 [Example 267, N-(3-acetylphenyl)-4-(4-{[(2-aminopyrimidin-4-yl)methyl]oxy}-1,2,5-thiadiazol-3-yl)piperazine-1-carboxamide]",1000 to 10000
2,"Nc1nccc(COc2ccccc2N2CCN(C(=O)Nc3cc(C(F)(F)F)ccc3F)CC2)n1 [Example 268, 4-(2-{[(2-aminopyrimidin-4-yl)methyl]oxy}phenyl)-N-[2-fluoro-5-(trifluoromethyl)phenyl]piperazine-1-carboxamide]",< 50
3,"Nc1nccc(COc2ccccc2N2CCN(C(=O)Nc3cccc(F)c3)CC2)n1 [Example 269, 4-(2-{[(2-aminopyrimidin-4-yl)methyl]oxy}phenyl)-N-(3-fluorophenyl)piperazine-1-carboxamide]",1000 to 10000
4,"Nc1nccc(COc2ccccc2N2CCN(C(=O)Nc3ccccc3)CC2)n1 [Example 270, 4-(2-{[(2-aminopyrimidin-4-yl)methyl]oxy}phenyl)-N-phenylpiperazine-1-carboxamide]",1000 to 10000
5,"Nc1nccc(COc2ccccc2N2CCN(C(=O)Nc3cc(Cl)cc(Cl)c3)CC2)n1 [Example 271, 4-(2-{[(2-aminopyrimidin-4-yl)methyl]oxy}phenyl)-N-(3,5-dichlorophenyl)piperazine-1-carboxamide]",< 50
6,"Nc1nccc(COc2ccccc2N2CCN(C(=O)Nc3cc(F)cc(C(F)(F)F)c3)CC2)n1 [Example 272, 4-(2-{[(2-aminopyrimidin-4-yl)methyl]oxy}phenyl)-N-[3-fluoro-5-(trifluoromethyl)phenyl]piperazine-1-carboxamide]",< 50
7,"COc1cc2nccc(COc3nsnc3N3CCN(C(=O)Nc4cc(C(F)(F)F)cc(C(F)(F)F)c4)CC3)c2cc1OC [Example 273, 4-[4-({[6,7-bis(methyloxy)quinolin-4-yl]methyl}oxy)-1,2,5-thiadiazol-3-yl]-N-[3,5-bis(trifluoromethyl)phenyl]piperazine-1-carboxamide]",< 50
8,"Nc1nccc(COc2nsnc2N2CCN(C(=O)Cc3cc(C(F)(F)F)cc(C(F)(F)F)c3)CC2)n1 [Example 274, 4-({[4-(4-{[3,5-bis(trifluoromethyl)phenyl]acetyl}piperazin-1-yl)-1,2,5-thiadiazol-3-yl]oxy}methyl)pyrimidin-2-amine]",50 to 1000
9,"NC(=O)c1cnc(OCc2ccnc(N)n2)c(N2CCN(C(=O)Nc3cc(C(F)(F)F)cc(C(F)(F)F)c3)CC2)n1 [Example 275, 5-{[(2-aminopyrimidin-4-yl)methyl]oxy}-6-[4-({[3,5-bis(trifluoromethyl)phenyl]amino}carbonyl)piperazin-1-yl]pyrazine-2-carboxamide]",< 50
10,"COc1cc2nccc(Oc3nsnc3N3CCN(C(=O)Nc4cc(C(F)(F)F)cc(C(F)(F)F)c4)CC3)c2cc1OC [Example 276, 4-(4-{[6,7-bis(methyloxy)quinolin-4-yl]oxy}-1,2,5-thiadiazol-3-yl)-N-[3,5-bis(trifluoromethyl)phenyl]piperazine-1-carboxamide]",< 50
11,"CCc1cc(NC(=O)N2CCN(c3ccccc3OCc3ccnc(N)n3)CC2)cc(C(F)(F)F)c1 [Example 277, 4-(2-{[(2-aminopyrimidin-4-yl)methyl]oxy}phenyl)-N-[3-ethyl-5-(trifluoromethyl)phenyl]piperazine-1-carboxamide]",< 50
12,"CCc1ccc(F)c(NC(=O)N2CCN(c3ccccc3OCc3ccnc(N)n3)CC2)c1 [Example 278, 4-(2-{[(2-aminopyrimidin-4-yl)methyl]oxy}phenyl)-N-(5-ethyl-2-fluorophenyl)piperazine-1-carboxamide]",< 50
13,"CCc1cc(CC)cc(NC(=O)N2CCN(c3ccccc3OCc3ccnc(N)n3)CC2)c1 [Example 279, 4-(2-{[(2-aminopyrimidin-4-yl)methyl]oxy}phenyl)-N-(3,5-diethylphenyl)piperazine-1-carboxamide]",< 50
14,"Nc1nccc(COc2nsnc2N2CCN(C(=O)Cc3ccc4ccccc4c3)CC2)n1 [Example 280, 4-[({4-[4-(naphthalen-2-ylacetyl)piperazin-1-yl]-1,2,5-thiadiazol-3-yl}oxy)methyl]pyrimidin-2-amine]",≥ 10000
15,"CCc1cc(Cl)cc(NC(=O)N2CCN(c3ccccc3OCc3ccnc(N)n3)CC2)c1 [Example 281, 4-(2-{[(2-aminopyrimidin-4-yl)methyl]oxy}phenyl)-N-(3-chloro-5-ethylphenyl)piperazine-1-carboxamide]",< 50
